The assay relates to polyclonal human IgG. Put plainly: Adsorption isotherm of peptoid affinity resins against polyclonal human IgG. Type of assay: binding. Further details: Qmax: unit not given here. Particulars: for Qmax: maximum capacity (qmax) of resin from isotherm fit; for Kd: peptoid ligand conjugated to chromatographic resin, IgG in PBS, hyperbola fit of isotherm, Kd given in molar, read-out: Kd x 10^−6. As for the experimental part: The affinity for the peptoid-resin combinations was determined by measuring the adsorption isotherm of each resin against polyclonal human IgG (Pakimna et al., J Applied Sci., 12(11): 1136-1141, 2012). Briefly, 0.050 mL of 50% resin slurry was pipetted into 6 individual wells of a 96-well filter plate (0.45 micron, PVDF, Harvard Apparatus). The resin was washed with 2×250 μL PBS using a vacuum manifold. To an individual well, 0.25 mL of a human polyclonal IgG solution at different concentrations (10, 5, 2.5, 1.25, 0.625, and 0.3125 mg/mL) was added. The resin/IgG suspension was agitated gently on a rocking table for 30 minutes. The fluid was then collected via vacuum, and the resin was washed with 0.25 mL of PBS. The filtrate and wash were then analyzed by the BCA assay to determine the residual IgG concentration relative to the starting concentration of the solution.
The equilibrium concentrations were then used to determine the capacity of the resin at each IgG concentration using the following formula: q=Volumesample×(Initial Concentration−Equilibrium Concentration)/Volumeresin
A plot of q versus equilibrium concentration was generated and the data fit with a hyperbola to determine the affinity constant (Kd) and the maximum capacity (qmax) according to the below formula, where C=the equilibrium concentration of antibody in solution: q=qmax×C/(kd+C) Typical adsorption isotherm is shown in FIG. 2. Tabulated Kd and qmax data is found in Table 2.

This passage reports Qmax and Kd results from patent US11053281B2, “Peptoid affinity ligands” (MIKE-ANN, LLC, priority 2016, dated 2021).

Like-named read-outs stand apart in the source and are kept apart here. *1 amine or outer side, *2 acyl side, *3 side chain or, on linkers, in order; H or OH if unused. Where a SMILES comes first, the peptide text is derived from it. [ ]: non-standard residue; d: D form. Gly(N(CH2)2(3-indolyl)) = O=C(O)CNCCc1c[nH]c2ccccc12; N(2-mercaptoethyl)Gly = O=C(CN(CCS[*:3])[*:1])[*:2]; N(4-hydroxyphenethyl)Gly = O=C(O)CNCCc1ccc(O)cc1; Gly(N-(CH2)3-guanidino) = N=C(N)NCCCNCC(=O)O; NGly(CH2(3-pyridyl)) = O=C(O)CNCc1cccnc1; N(CH2CH2COOH)Gly = O=C(O)CCNCC(=O)O; Gly(N(CH2)3NH2) = NCCCNCC(=O)O; Cysteamide = C(CS[*:3])N[*:1]; X1 = CSCCN(CC(=O)[*:2])[*:1]; Nphe = O=C(O)CNCc1ccccc1; NPrGly = CCCNCC(=O)O; Nme = COCCNCC(=O)O; Sar = CNCC(=O)O

As to `CCCNCC(=O)N(CCc1c[nH]c2ccccc12)CC(=O)NCC(=O)N(CCCNC(=N)N)CC(=O)N(CCc1c[nH]c2ccccc12)CC(=O)N(CC(=O)NCCS)Cc1cccnc1` [Ligand 12-65-9], where the note is “Table 2”, the Qmax worked out at 76 and the Kd turned out to be 9.3 µM.

In the case of `COCCNCC(=O)N(CCc1c[nH]c2ccccc12)CC(=O)N(CCc1c[nH]c2ccccc12)CC(=O)N(CCCN)CC(=O)N(CC(=O)N(CCC(=O)O)CC(=O)N(C)CC(=O)NCCS)Cc1cccnc1` [Ligand 12-73-2] (H-[Nme][Gly(N(CH2)2(3-indolyl))][Gly(N(CH2)2(3-indolyl))][Gly(N(CH2)3NH2)][NGly(CH2(3-pyridyl))][N(CH2CH2COOH)Gly][Sar]-Cysteamide), for the setting “Table 2”, the Qmax is 74 and the Kd stood at 2.7 µM.

Turning to `CCCN(CC(=O)N(CCc1c[nH]c2ccccc12)CC(=O)NCCS)C(=O)CN(CCc1c[nH]c2ccccc12)C(=O)CN(C)C(=O)CN(CCc1c[nH]c2ccccc12)C(=O)CN(Cc1cccnc1)C(=O)CNCCCN` [Ligand 12-73-4] (H-[Gly(N(CH2)3NH2)][NGly(CH2(3-pyridyl))][Gly(N(CH2)2(3-indolyl))][Sar][Gly(N(CH2)2(3-indolyl))][NPrGly][Gly(N(CH2)2(3-indolyl))]-Cysteamide), under “Table 2”, the Qmax is 72 and the Kd stood at 3.9 µM.

Consider `CCCN(CC(=O)N(C)CC(=O)N(CCc1c[nH]c2ccccc12)CC(=O)N(CCC)CC(=O)N(CCc1c[nH]c2ccccc12)CC(=O)NCCS)C(=O)CN(CCCNC(=N)N)C(=O)CNCCc1c[nH]c2ccccc12` [Ligand 12-76-3] (H-[Gly(N(CH2)2(3-indolyl))][Gly(N-(CH2)3-guanidino)][NPrGly][Sar][Gly(N(CH2)2(3-indolyl))][NPrGly][Gly(N(CH2)2(3-indolyl))]-Cysteamide), for which, where the note is “Table 3”, the Qmax is reported as 87 and the Kd amounted to 3.2 µM.

Take `CCCN(CC(=O)N(CCc1c[nH]c2ccccc12)CC(=O)NCCS)C(=O)CN(CCc1c[nH]c2ccccc12)C(=O)CN(C)C(=O)CN(CCc1c[nH]c2ccccc12)C(=O)CN(Cc1cccnc1)C(=O)CNCCCNC(=N)N` [Ligand 12-76-4] (H-[Gly(N-(CH2)3-guanidino)][NGly(CH2(3-pyridyl))][Gly(N(CH2)2(3-indolyl))][Sar][Gly(N(CH2)2(3-indolyl))][NPrGly][Gly(N(CH2)2(3-indolyl))]-Cysteamide): where the note is “Table 2”, the Qmax is reported as 89 and the Kd amounted to 5.7 µM.

For the compound `CCCNCC(=O)N(CC(=O)N(CC(=O)N(C)CC(=O)N(CCc1c[nH]c2ccccc12)CC(=O)N(CCC)CC(=O)N(CCc1c[nH]c2ccccc12)CC(=O)NCCS)Cc1ccccc1)Cc1cccnc1` [Ligand 12-79-4] (H-[NPrGly][NGly(CH2(3-pyridyl))][Nphe][Sar][Gly(N(CH2)2(3-indolyl))][NPrGly][Gly(N(CH2)2(3-indolyl))]-Cysteamide), under “Table 3”, the Qmax is 69 and the Kd stood at 3.6 µM.

Turning to `CCCN(CC(=O)N(CCc1c[nH]c2ccccc12)CC(=O)NCCS)C(=O)CN(CCc1c[nH]c2ccccc12)C(=O)CN(C)C(=O)CN(CCCNC(=N)N)C(=O)CN(CCOC)C(=O)CNCc1cccnc1` [Ligand 15-28-5] (H-[NGly(CH2(3-pyridyl))][Nme][Gly(N-(CH2)3-guanidino)][Sar][Gly(N(CH2)2(3-indolyl))][NPrGly][Gly(N(CH2)2(3-indolyl))]-Cysteamide), for the setting “Table 3”, the Qmax was determined as 61 and the Kd is 6.1 µM.

`CCCN(CC(=O)N(CCc1c[nH]c2ccccc12)CC(=O)NCCS)C(=O)CN(CCc1c[nH]c2ccccc12)C(=O)CN(C)C(=O)CN(Cc1cccnc1)C(=O)CN(CCOC)C(=O)CNCc1cccnc1` [Ligand 15-91-1] (H-[NGly(CH2(3-pyridyl))][Nme][NGly(CH2(3-pyridyl))][Sar][Gly(N(CH2)2(3-indolyl))][NPrGly][Gly(N(CH2)2(3-indolyl))]-Cysteamide): under “Table 3”, the Qmax is 80 and the Kd worked out at 66 µM.

`CCCN(CC(=O)N(CCc1c[nH]c2ccccc12)CC(=O)NCCS)C(=O)CN(CCc1c[nH]c2ccccc12)C(=O)CN(C)C(=O)CN(CCC(=O)O)C(=O)CN(Cc1cccnc1)C(=O)CNCCCN` [Ligand 15-91-4] (H-[Gly(N(CH2)3NH2)][NGly(CH2(3-pyridyl))][N(CH2CH2COOH)Gly][Sar][Gly(N(CH2)2(3-indolyl))][NPrGly][Gly(N(CH2)2(3-indolyl))]-Cysteamide): where the note is “Table 3”, the Qmax was found to be 32 and the Kd was determined as 6 µM.

`CCCN(CC(=O)N(CCc1c[nH]c2ccccc12)CC(=O)NCCS)C(=O)CN(CCc1c[nH]c2ccccc12)C(=O)CN(C)C(=O)CN(Cc1cccnc1)C(=O)CN(CCSC)C(=O)CNCc1cccnc1` [Ligand 16-64-2] (H-[NGly(CH2(3-pyridyl))][N(2-mercaptoethyl)Gly](Me)[NGly(CH2(3-pyridyl))][Sar][Gly(N(CH2)2(3-indolyl))][NPrGly][Gly(N(CH2)2(3-indolyl))]-Cysteamide): where the note is “Table 3”, the Qmax was 49 and the Kd came out at 5.5 µM.

As for `CSCCN(CC(=O)N(CCCN)CC(=O)N(CC(=O)N(CCC(=O)O)CC(=O)N(C)CC(=O)NCCS)Cc1cccnc1)C(=O)CN(Cc1ccccc1)C(=O)CNCc1cccnc1` [Ligand 16-64-4] (H-[NGly(CH2(3-pyridyl))][Nphe][X1][Gly(N(CH2)3NH2)][NGly(CH2(3-pyridyl))][N(CH2CH2COOH)Gly][Sar]-Cysteamide), for the setting “Table 3”, the Qmax turned out to be 33 and the dissociation constant (Kd) is 28 µM.

For `CCCN(CC(=O)N(CCCN)CC(=O)N(CC(=O)N(CCC(=O)O)CC(=O)N(C)CC(=O)NCCS)Cc1cccnc1)C(=O)CN(CCC(=O)O)C(=O)CNCc1cccnc1` [Ligand 16-75-1] (H-[NGly(CH2(3-pyridyl))][N(CH2CH2COOH)Gly][NPrGly][Gly(N(CH2)3NH2)][NGly(CH2(3-pyridyl))][N(CH2CH2COOH)Gly][Sar]-Cysteamide), where the note is “Table 3”, the Qmax is reported as 33 and the dissociation constant (Kd) was 18 µM.

Turning to `NC(=O)NCCCN(CC(=O)N(CCc1c[nH]c2ccccc12)CC(=O)N(CC(=O)NCCS)Cc1cccnc1)C(=O)CNCCc1c[nH]c2ccccc12` [Ligand 16-75-5], under “Table 2”, the Qmax was 44 and the Kd is 4.3 µM.

`NC(=O)NCCCN(CC(=O)N(CCc1c[nH]c2ccccc12)CC(=O)NCCS)C(=O)CN(CCc1c[nH]c2ccccc12)C(=O)CNCc1cccnc1` [Ligand 16-77-1]: under “Table 2”, the Qmax was 61 and the Kd was 3.6 µM.

For `COCCN(CC(=O)NCCS)C(=O)CN(CCc1c[nH]c2ccccc12)C(=O)CN(CCc1c[nH]c2ccccc12)C(=O)CNCCCN` [Ligand 16-77-3] (H-[Gly(N(CH2)3NH2)][Gly(N(CH2)2(3-indolyl))][Gly(N(CH2)2(3-indolyl))][Nme]-Cysteamide), for the setting “Table 2”, the Qmax came to 47 and the Kd is 4 µM.

With `COCCNCC(=O)N(CCc1c[nH]c2ccccc12)CC(=O)N(CCc1c[nH]c2ccccc12)CC(=O)N(CCCN)CC(=O)NCCS` [Ligand 16-77-4] (H-[Nme][Gly(N(CH2)2(3-indolyl))][Gly(N(CH2)2(3-indolyl))][Gly(N(CH2)3NH2)]-Cysteamide), where the note is “Table 2”, the Qmax came out at 44 and the Kd was determined as 4.3 µM.

Turning to `COCCN(CC(=O)N(CCCN)CC(=O)N(CCc1c[nH]c2ccccc12)CC(=O)NCCS)C(=O)CNCc1cccnc1` [Ligand 16-81-6] (H-[NGly(CH2(3-pyridyl))][Nme][Gly(N(CH2)3NH2)][Gly(N(CH2)2(3-indolyl))]-Cysteamide), for the setting “Table 3”, the Qmax came to 45 and the Kd amounted to 3.6 µM.

For the compound `COCCN(CC(=O)N(CC(=O)NCCS)Cc1cccnc1)C(=O)CN(CCCN)C(=O)CNCCc1c[nH]c2ccccc12` [Ligand 16-81-7] (H-[Gly(N(CH2)2(3-indolyl))][Gly(N(CH2)3NH2)][Nme][NGly(CH2(3-pyridyl))]-Cysteamide), where the note is “Table 3”, the Qmax worked out at 39 and the Kd was 4.8 µM.

`O=C(CN(CCc1c[nH]c2ccccc12)C(=O)CN(Cc1cccnc1)C(=O)CN(CCc1c[nH]c2ccccc12)C(=O)CNCc1cccnc1)NCCS` [Ligand 16-82-2]: where the note is “Table 3”, the Qmax stood at 41 and the Kd was 2.5 µM.

On to `NCCCNCC(=O)N(CC(=O)N(CCc1c[nH]c2ccccc12)CC(=O)N(CCc1c[nH]c2ccccc12)CC(=O)NCCS)Cc1cccnc1` [Ligand 16-82-3] (H-[Gly(N(CH2)3NH2)][NGly(CH2(3-pyridyl))][Gly(N(CH2)2(3-indolyl))][Gly(N(CH2)2(3-indolyl))]-Cysteamide), for which, where the note is “Table 2”, the Qmax is reported as 47 and the Kd was found to be 2.5 µM.

Turning to `CN(CC(=O)NCCS)C(=O)CN(CCC(=O)O)C(=O)CN(Cc1cccnc1)C(=O)CN(CCCNC(=N)N)C(=O)CN(CCCNC(=N)N)C(=O)CN(CCc1ccc(O)cc1)C(=O)CNCCc1ccc(O)cc1` [Ligand 18-28-1] (H-[N(4-hydroxyphenethyl)Gly][N(4-hydroxyphenethyl)Gly][Gly(N-(CH2)3-guanidino)][Gly(N-(CH2)3-guanidino)][NGly(CH2(3-pyridyl))][N(CH2CH2COOH)Gly][Sar]-Cysteamide), for the setting “Table 2”, the Qmax is given as 41 and the Kd turned out to be 7.7 µM.
